≈ marks a conversion by molar mass, not a printed value.
Columns and labels:
[1] = tested on: Staphylococcus epidermidis; test: In vitro antimicrobial activity against Staphylococcus epidermidis EPI1; format: functional
Streptococcus pneumoniae = test: In vitro antimicrobial activity against Streptococcus pneumoniae; format: functional
Haemophilus influenzae = test: In vitro antimicrobial activity against Haemophilus influenzae.; format: functional
Enterococcus faecium = test: In vitro antimicrobial activity against Streptococcus faecium X66; format: functional, streptococcus fae-cium
Staphylococcus aureus = test: In vitro antimicrobial activity against Staphylococcus aureus X1; format: functional
Streptococcus pyogenes = test: In vitro antimicrobial activity against Streptococcus pyogenes C203; format: functional

| MIC [1] [mg/L] | MIC (Streptococcus pneumoniae) [mg/L] | MIC (Haemophilus influenzae) [mg/L] | MIC (Enterococcus faecium) [mg/L] | MIC (Staphylococcus aureus) [mg/L] | MIC (Streptococcus pyogenes) [mg/L] | SMILES |
| --- | --- | --- | --- | --- | --- | --- |
| > 128 | > 128 | > 128 | > 128 | > 128 | > 128 | CC[C@H]1OC(=O)C[C@@H](O)[C@H](C)[C@H]2OCC[C@H]2C[C@@H](C)C(=O)/C=C/C(C)=C/[C@@H]1CO[C@@H]1O[C@H](C)[C@@H](O)[C@@H](OC)[C@H]1OC |
| 16 (≈ 22.4 µM) | 64 (≈ 89.6 µM) | > 128 | 128 (≈ 179 µM) | 64 (≈ 89.6 µM) | 64 (≈ 89.6 µM) | CC[C@H]1OC(=O)C[C@@H](O)[C@H](C)[C@@H](O[C@@H]2O[C@H](C)[C@@H](O[C@H]3C[C@@](C)(O)[C@@H](O)[C@H](C)O3)[C@H](N(C)C)[C@H]2O)[C@@H](C)C[C@@H](C)C(=O)/C=C/C(C)=C/[C@@H]1CO |
| 0.5 (≈ 0.575 µM) | 2 (≈ 2.3 µM) | 32 (≈ 36.8 µM) | 16 (≈ 18.4 µM) | 0.5 (≈ 0.575 µM) | 0.5 (≈ 0.575 µM) | CC[C@H]1OC(=O)C[C@@H](O)[C@H](C)[C@@H](O[C@@H]2O[C@H](C)[C@@H](O)[C@H](N(C)C)[C@H]2O)[C@@H](CCI)C[C@@H](C)C(=O)/C=C/C(C)=C/[C@@H]1CO[C@@H]1O[C@H](C)[C@@H](O)[C@@H](O)[C@H]1OC |
| 8 (≈ 8.01 µM) | 16 (≈ 16 µM) | > 128 | 64 (≈ 64 µM) | 4 (≈ 4 µM) | 2 (≈ 2 µM) | CC[C@H]1OC(=O)C[C@@H](O)[C@H](C)[C@@H](O[C@@H]2O[C@H](C)[C@@H](O[C@H]3C[C@@](C)(O)[C@@H](O)[C@H](C)O3)[C@H](N(C)C)[C@H]2O)[C@@H](CCN2CCCCCCC2)C[C@@H](C)C(=O)/C=C/C(C)=C/[C@@H]1CO[C@@H]1O[C@H](C)[C@@H](O)[C@@H](O)[C@H]1OC |
| 4 (≈ 5.49 µM) | 64 (≈ 87.8 µM) | 64 (≈ 87.8 µM) | 16 (≈ 22 µM) | 4 (≈ 5.49 µM) | 64 (≈ 87.8 µM) | CC[C@H]1OC(=O)C[C@@H](O)[C@H](C)[C@@H](O[C@@H]2O[C@H](C)[C@@H](O)[C@H](N(C)C)[C@H]2O)[C@@H](CCN2C(=O)c3ccccc3C2=O)C[C@@H](C)C(=O)/C=C/C(C)=C/[C@@H]1CO |
| 32 (≈ 36.7 µM) | 16 (≈ 18.3 µM) | > 128 | > 128 | 64 (≈ 73.3 µM) | 128 (≈ 147 µM) | CC[C@H]1OC(=O)C[C@@H](O)[C@H](C)[C@@H](O[C@@H]2O[C@H](C)[C@@H](O[C@H]3C[C@@](C)(O)[C@@H](O)[C@H](C)O3)[C@H](N(C)C)[C@H]2O)[C@@H](CCN2C(=O)c3ccccc3C2=O)C[C@@H](C)C(=O)/C=C/C(C)=C/[C@@H]1CO |
| 128 (≈ 172 µM) | 64 (≈ 86 µM) | > 128 | > 128 | > 128 | 64 (≈ 86 µM) | CC[C@H]1OC(=O)C[C@@H](O)[C@H](C)[C@@H](O[C@@H]2O[C@H](C)[C@@H](O[C@H]3C[C@@](C)(O)[C@@H](O)[C@H](C)O3)[C@H](N(C)C)[C@H]2O)[C@@H](CCO)C[C@@H](C)C(=O)/C=C/C(C)=C/[C@@H]1CO |
| 0.25 (≈ 0.306 µM) | 2 (≈ 2.45 µM) | 16 (≈ 19.6 µM) | 8 (≈ 9.8 µM) | 0.5 (≈ 0.613 µM) | 0.12 (≈ 0.147 µM) | CC[C@H]1OC(=O)C[C@@H](O)[C@H](C)[C@@H](O[C@@H]2O[C@H](C)[C@@H](O)[C@H](N(C)C)[C@H]2O)[C@@H](CCOC(C)=O)C[C@@H](C)C(=O)/C=C/C(C)=C/[C@@H]1CO[C@@H]1O[C@H](C)[C@@H](O)[C@@H](OC)[C@H]1OC |
| 0.5 (≈ 0.56 µM) | 1 (≈ 1.12 µM) | – | 4 (≈ 4.48 µM) | 0.5 (≈ 0.56 µM) | 0.25 (≈ 0.28 µM) | CC[C@H]1OC(=O)C[C@@H](O)[C@H](C)[C@@H](O[C@@H]2O[C@H](C)[C@@H](O)[C@H](N(C)C)[C@H]2O)[C@@H](CCOc2cccc(N(C)C)c2)C[C@@H](C)C(=O)/C=C/C(C)=C/[C@@H]1CO[C@@H]1O[C@H](C)[C@@H](O)[C@@H](OC)[C@H]1OC |
| 1 (≈ 0.962 µM) | 16 (≈ 15.4 µM) | > 128 | 128 (≈ 123 µM) | 1 (≈ 0.962 µM) | 2 (≈ 1.92 µM) | CC[C@H]1OC(=O)C[C@@H](O)[C@H](C)[C@@H](O[C@@H]2O[C@H](C)[C@@H](O[C@H]3C[C@@](C)(O)[C@@H](O)[C@H](C)O3)[C@H](N(C)C)[C@H]2O)[C@@H](CCOc2ccc([N+](=O)[O-])cc2)C[C@@H](C)C(=O)/C=C/C(C)=C/[C@@H]1CO[C@@H]1O[C@H](C)[C@@H](O)[C@@H](OC)[C@H]1OC |
| 16 (≈ 27.4 µM) | 16 (≈ 27.4 µM) | 32 (≈ 54.8 µM) | 32 (≈ 54.8 µM) | 4 (≈ 6.85 µM) | 16 (≈ 27.4 µM) | CC[C@H]1OC(=O)C[C@@H](O)[C@H](C)[C@@H](O[C@@H]2O[C@H](C)[C@@H](O)[C@H](N(C)C)[C@H]2O)[C@@H](CCO)C[C@@H](C)C(=O)/C=C/C(C)=C/[C@@H]1C |
| 1 (≈ 1.09 µM) | 64 (≈ 69.6 µM) | > 128 | > 128 | 1 (≈ 1.09 µM) | 4 (≈ 4.35 µM) | CC[C@H]1OC(=O)C[C@@H](O)[C@H](C)[C@@H](O[C@@H]2O[C@H](C)[C@@H](O[C@H]3C[C@@](C)(O)[C@@H](O)[C@H](C)O3)[C@H](N(C)C)[C@H]2O)[C@@H](CCF)C[C@@H](C)C(=O)/C=C/C(C)=C/[C@@H]1CO[C@@H]1O[C@H](C)[C@@H](O)[C@@H](OC)[C@H]1OC |

— ChEMBL document CHEMBL1124186, “Synthesis and evaluation of tylosin-related macrolides modified at the aldehyde function: a new series of orally effective antibiotics” (1988)
